Source: US4292314A, “Cardioactive 12-dehydrodigoxin-oximes” (Boehringer Mannheim GmbH, priority 1979, dated 1981)
Like-named read-outs stand apart in the source and are kept apart here.

Columns and labels:
[1] = Pharmacokinetic investigations on awake cats, intravenous injection of 3H-marked test compounds; format: in vivo, cat; details: for distribution volume / elimination constant / excretion in urine: awake cats, i.v., digoxin 30 μg./kg., Cpd. 1 and Cpd. 7 100 μg./kg.; for excretion in urine: urine collected for 14 days; for dosage needed to achieve the same plasma concentration, relative to digoxin: from total clearance
Protocol: Pharmacokinetic investigations were carried out on awake cats, the test compounds being injected intravenously in the ^3 H-marked form. Over the course of 48 hours, blood samples were taken via an implanted catheter for the determination of the radioactivity in the plasma. The urine was collected for 14 days. The elimination constant was calculated from the decrease of the plasma concentration and the amount excreted in the urine.

[2] = tested on: cats with pentobarbital-induced heart insufficiency; test: animal or person; details: for ED (1.5 mmHg/sec increase) / ED (3.0 mmHg/sec increase): Felis catus, 10 min; for ED (1.5 mmHg/sec increase): read-out: DE1.5; for ED (3.0 mmHg/sec increase): read-out: DE3.0; for quotient of DE3.0 and DE1.5, steepness of the dosage activity line: cats, fractionated injection
Protocol: (§1) The pharmacological action of the new compounds according to the present invention was determined by the comparison of 12-dehydrodigoxin oxime (Compound 1 from) and 12-dehydrodigoxin-o-methyloxime (Compound 7 from) with digoxin, which is a known pharmaceutical for the treatment of cardiac insufficiency, using the following experimental procedure:
(§2) The positive inotropic and cardiotoxic action was tested on cats with pentobarbital-induced heart insufficiency. Increasing dosages were injected at intervals of 10 minutes, so that the total dosage increased in each case by the factor √2. The criterion for the therapeutically relevant, positively inotropic action was the increase of the maximum pressure increase rate by 1.5 or 3.0 mm. Hg/sec (DE1.5 and DE3.0). The quotient from both values is a measure for the steepness of the dosage activity line.
(§3) The measure for the cardiotoxicity was the dosage at which the first disturbances of the induction of stimulation took place. The point of time of the commencement of arrhythmias as ascertained from the electrocardiogram and the related dosage calculated by interpolation. The quotient from this cardiotoxic dosage and the DE1.5 served as a measure for the therapeutic breadth.

[3] = in vivo; details: cat, in vivo
Protocol: as §1, §2, §3

[4] = humans; cited from earlier work

Compound | distribution volume [1] | elimination constant [1] | excretion in urine [1] | dosage needed to achieve the same plasma concentration, relative to digoxin ([1]; cats) | elimination constant compared with digoxin ([1]; in words, cats) | ED (1.5 mmHg/sec increase) [2] | ED (3.0 mmHg/sec increase) [2] | quotient of DE3.0 and DE1.5, steepness of the dosage activity line [2] | TD50 [3] | selectivity ratio [3] | distribution volume compared with digoxin ([1]; in words, cats) | total clearance compared with digoxin ([1]; in words, cats) | dosage activity line compared with digoxin ([2]; in words) | elimination constant [4]
C[C@H]1O[C@@H](O[C@H]2[C@@H](O)C[C@H](O[C@H]3[C@@H](O)C[C@H](O[C@H]4CC[C@@]5(C)[C@H](CC[C@@H]6[C@@H]5CC(=NO)[C@]5(C)[C@@H](C7=CC(=O)OC7)CC[C@]65O)C4)O[C@@H]3C)O[C@@H]2C)C[C@H](O)[C@@H]1O [Compound 1, 12-Dehydrodigoxin oxime] | 2.74 kg⁻¹ | 0.0258 h⁻¹ | 30 % of dose | about 45 % of the dosage of digoxin | even greater | 0.105 mg/kg | 0.236 mg/kg | 1.98 | 0.51 mg/kg | 4.85 |  |  |  | 
CON=C1C[C@H]2[C@@H](CC[C@@H]3C[C@@H](O[C@H]4C[C@H](O)[C@H](O[C@H]5C[C@H](O)[C@H](O[C@H]6C[C@H](O)[C@H](O)[C@@H](C)O6)[C@@H](C)O5)[C@@H](C)O4)CC[C@@]32C)[C@@]2(O)CC[C@H](C3=CC(=O)OC3)[C@@]12C [Compound 7, 12-Dehydrodigoxin--O-methyloxime] | 1.47 kg⁻¹ | 0.0143 h⁻¹ | 31 % of dose | 13 % of the dosage of digoxin | about equally as great as for digoxin | 0.334 mg/kg | 0.817 mg/kg | 3.56 | 1.37 mg/kg | 4.1 | lower distribution volume | lower total clearance | flatter than in the case of digoxin | 
C[C@H]1O[C@@H](O[C@H]2[C@@H](O)C[C@H](O[C@H]3[C@@H](O)C[C@H](O[C@H]4CC[C@@]5(C)[C@H](CC[C@@H]6[C@@H]5C[C@@H](O)[C@]5(C)[C@@H](C7=CC(=O)OC7)CC[C@]65O)C4)O[C@@H]3C)O[C@@H]2C)C[C@H](O)[C@@H]1O [digoxin] | 13.3 kg⁻¹ | 0.01214 h⁻¹ | 42.8 % of dose |  |  | 0.12 mg/kg | 0.253 mg/kg | 2.28 | 0.33 mg/kg | 2.75 |  |  |  | about 0.015 h^-1
